Patent publication US8765944B2, “Compounds for the treatment of hepatitis C” (priority 2010, dated 2014)

Tested on: HCV pseudoparticles
Test: HCV pseudoparticle infection assay (luciferase reporter, Huh7 cells)
Format: cell-based, HCV (genotype 1b E1 and E2 envelope)
Settings: Hepatitis C virus, genotype 1b, Huh-7, 48 h, HCV pseudoparticles (genotype 1b), luciferase activity 2 days after infection

Structure (SMILES) | EC50 (class) [nM] | EC50 [nM]
CC(C)S(=O)(=O)NC(=O)CCCNC(=O)c1ccc(Nc2nc(NC3(c4ccc(Cl)cc4)CC3)nc(OCC(F)(F)F)n2)cc1 [Example 2023] | 0.5 to 100 | –
NC(=O)c1ccc(Nc2nc(NC3(C(=O)NS(=O)(=O)C4CC4)CC3)nc(OCC(F)(F)F)n2)cc1 [Example 8002] | 1000 to 5000 | –
CC(C)NCCS(=O)(=O)NC(=O)c1ccc(Nc2nc(NC3(c4ccc(Cl)cc4)CC3)nc(OCC(F)(F)F)n2)cc1 [Example 1035] | 0.5 to 100 | –
CC(C)S(=O)(=O)NC(=O)C1(CNC(=O)c2ccc(Nc3nc(NC4(c5ccc(Cl)cc5)CC4)nc(OCC(F)(F)F)n3)cc2)CC1 [Example 2074] | 0.5 to 100 | –
CCN(CC)CC1(C(=O)NS(=O)(=O)c2ccc(Nc3nc(NC4(c5ccc(Cl)cc5)CC4)nc(OCC(F)(F)F)n3)cc2)CC1 [Example 3004] | 1000 to 5000 | 1640
CNC(=O)NCCS(=O)(=O)NC(=O)c1ccc(Nc2nc(NC3(c4ccc(Cl)cc4)CC3)nc(OCC(F)(F)F)n2)cc1 [Example 1047] | 0.5 to 100 | –
CCN(CC)CC1(S(=O)(=O)NC(=O)c2ccc(Nc3nc(NC4(c5ccc(Cl)cc5)CC4)nc(OCC(F)(F)F)n3)cc2)CC1 [Example 1014] | 0.5 to 100 | –
CN(C)CC1(S(=O)(=O)NC(=O)c2ccc(Nc3nc(OCC(F)(F)F)nc(N4CCN(S(=O)(=O)c5cccc(F)c5)CC4)n3)cc2)CC1 [Example 8036] | 1000 to 5000 | –
CN(CC1(S(=O)(=O)NC(=O)c2ccc(Nc3nc(NC4(c5ccc(Cl)cc5)CC4)nc(OCC(F)(F)F)n3)cc2)CC1)c1ccccc1 [Example 1021] | 0.5 to 100 | 94
NC(=O)c1ccc(Nc2nc(N[C@]3(C(=O)NS(=O)(=O)C4CC4)C[C@H]3C3CC3)nc(OCC(F)(F)F)n2)cc1 [Example 8001] | 1000 to 5000 | –
CC(C)OC(=O)NCCS(=O)(=O)NC(=O)c1ccc(Nc2nc(NC3(c4ccc(Cl)cc4)CC3)nc(OCC(F)(F)F)n2)cc1 [Example 1045] | 0.5 to 100 | –
CN(C)CC1(S(=O)(=O)NC(=O)c2ccc(Nc3nc(OCC(F)(F)F)nc(N4CCN(C(=O)OC(C)(C)C)CC4)n3)cc2)CC1 [Example 8028] | 1000 to 5000 | 17600
C[C@@H](NC(=O)CCCNC(=O)c1ccc(Nc2nc(NC3(c4ccc(Cl)cc4)CC3)nc(OCC(F)(F)F)n2)cc1)C(=O)NS(=O)(=O)C1CC1 [Example 2053] | 0.5 to 100 | –
CCC1(S(=O)(=O)NC(=O)C(C)(C)CNC(=O)c2ccc(Nc3nc(NC4(c5ccc(Cl)cc5)CC4)nc(OCC(F)(F)F)n3)cc2)CC1 [Example 2091] | 0.5 to 100 | –
O=C(NS(=O)(=O)CCCCl)c1ccc(Nc2nc(NC3(c4ccc(Cl)cc4)CC3)nc(OCC(F)(F)F)n2)cc1 [Example 1009] | 0.5 to 100 | –
O=C(CCCNC(=O)c1ccc(Nc2nc(NC3(c4ccc(Cl)cc4)CC3)nc(OCC(F)(F)F)n2)cc1)NCCC(=O)NS(=O)(=O)C1CC1 [Example 2062] | 0.5 to 100 | –
CN(C)CC1(S(=O)(=O)NC(=O)c2ccc(Nc3nc(OCC(F)(F)F)nc(N4CCN(S(=O)(=O)C5CC5)CC4)n3)cc2)CC1 [Example 8025] | 1000 to 5000 | –
CC1(C)CCCN1CC1(S(=O)(=O)NC(=O)c2ccc(Nc3nc(NC4(c5ccc(Cl)cc5)CC4)nc(OCC(F)(F)F)n3)cc2)CC1 [Example 1016] | 0.5 to 100 | –
O=C(NS(=O)(=O)C1CC1)c1ccc(Nc2nc(NC3(c4ccc(Cl)cc4)CC3)nc(OCC(F)(F)F)n2)cc1 [Example 1001] | 0.5 to 100 | –
CC(C)NC(=O)NCCS(=O)(=O)NC(=O)c1ccc(Nc2nc(NC3(c4ccc(Cl)cc4)CC3)nc(OCC(F)(F)F)n2)cc1 [Example 1048] | 0.5 to 100 | –
CC(C)S(=O)(=O)NC(=O)CCCCNC(=O)c1ccc(Nc2nc(NC3(c4ccc(Cl)cc4)CC3)nc(OCC(F)(F)F)n2)cc1 [Example 2013] | 0.5 to 100 | –
O=C(NCCS(=O)(=O)NC(=O)c1ccc(Nc2nc(NC3(c4ccc(Cl)cc4)CC3)nc(OCC(F)(F)F)n2)cc1)c1cccnc1 [Example 1043] | 0.5 to 100 | –
O=C(CCCNC(=O)c1ccc(Nc2nc(NC3(c4ccc(Cl)cc4)CC3)nc(OCC(F)(F)F)n2)cc1)NS(=O)(=O)C1CC1 [Example 2024] | 0.5 to 100 | –
CCS(=O)(=O)N1CCN(c2nc(Nc3ccc(C(=O)NS(=O)(=O)C4(CN(C)C)CC4)cc3)nc(OCC(F)(F)F)n2)CC1 [Example 8023] | 1000 to 5000 | –
CN(C)CC1(C(=O)NS(=O)(=O)c2ccc(Nc3nc(NC4(c5ccc(Cl)cc5)CC4)nc(OCC(F)(F)F)n3)cc2)CC1 [Example 3006] | 1000 to 5000 | 2700
CC(C)(CNC(=O)c1ccc(Nc2nc(NC3(c4ccc(Cl)cc4)CC3)nc(OCC(F)(F)F)n2)cc1)C(=O)NS(=O)(=O)C1CCC1 [Example 2089] | 0.5 to 100 | –
O=C(NCC1(C(=O)N[C@]2(C(=O)NS(=O)(=O)C3CC3)C[C@H]2C2CC2)CC1)c1ccc(Nc2nc(NC3(c4ccc(Cl)cc4)CC3)nc(OCC(F)(F)F)n2)cc1 [Example 2066] | 0.5 to 100 | –

Structure (SMILES) | EC50 (class) [nM] | EC50 [nM]
O=C(CCN1CCS(=O)(=O)CC1)NCC1(C(=O)NS(=O)(=O)c2ccc(Nc3nc(NC4(c5ccc(Cl)cc5)CC4)nc(OCC(F)(F)F)n3)cc2)CC1 [Example 3009] | 1000 to 5000 | –
CC(C)(C)OC(=O)N1CCC(C(=O)NCCS(=O)(=O)NC(=O)c2ccc(Nc3nc(NC4(c5ccc(Cl)cc5)CC4)nc(OCC(F)(F)F)n3)cc2)CC1 [Example 1042] | 0.5 to 100 | –
O=C(NS(=O)(=O)C1(Cc2ccccc2F)CC1)c1ccc(Nc2nc(NC3(c4ccc(Cl)cc4)CC3)nc(OCC(F)(F)F)n2)cc1 [Example 8016] | 0.5 to 100 | –
O=C(NS(=O)(=O)C1(CN2CCCC2)CC1)c1ccc(Nc2nc(NC3(c4ccc(Cl)cc4)CC3)nc(OCC(F)(F)F)n2)cc1 [Example 1011] | 0.5 to 100 | 0.48
O=C(NCC1(C(=O)NS(=O)(=O)C2CC2)CC1)c1ccc(Nc2nc(NC3(c4ccc(Cl)cc4)CC3)nc(OCC(F)(F)F)n2)cc1 [Example 2070] | 0.5 to 100 | –
C=C[C@@H]1C[C@]1(NC(=O)C(C)(C)CNC(=O)c1ccc(Nc2nc(NC3(c4ccc(Cl)cc4)CC3)nc(OCC(F)(F)F)n2)cc1)C(=O)NS(=O)(=O)C(C)(C)C [Example 2082] | 0.5 to 100 | –
C=CS(=O)(=O)NC(=O)C(C)(C)CNC(=O)c1ccc(Nc2nc(NC3(c4ccc(Cl)cc4)CC3)nc(OCC(F)(F)F)n2)cc1 [Example 2086] | 0.5 to 100 | –
CC(C)(C)OC(=O)N1C[C@@H](NC(=O)c2ccc(Nc3nc(NC4(c5ccc(Cl)cc5)CC4)nc(OCC(F)(F)F)n3)cc2)C[C@@H]1C(=O)NC1(C(=O)NS(=O)(=O)C2CC2)CC1 [Example 5002] | 0.5 to 100 | –
O=C(CCCNC(=O)c1ccc(Nc2nc(NC3(c4ccc(Cl)cc4)CC3)nc(OCC(F)(F)F)n2)cc1)N[C@]1(C(=O)NS(=O)(=O)C2CC2)C[C@H]1C(F)F [Example 2038] | 0.5 to 100 | –
CCC(=O)NS(=O)(=O)c1ccc(Nc2nc(NC3(c4ccc(Cl)cc4)CC3)nc(OCC(F)(F)F)n2)cc1 [Example 8004] | 1000 to 5000 | 2980
C[C@H](NC(=O)CCCNC(=O)c1ccc(Nc2nc(NC3(c4ccc(Cl)cc4)CC3)nc(OCC(F)(F)F)n2)cc1)C(=O)NS(=O)(=O)N(C)C [Example 2056] | 0.5 to 100 | –
CS(=O)(=O)NC(=O)[C@@]1(NC(=O)CCCNC(=O)c2ccc(Nc3nc(NC4(c5ccc(Cl)cc5)CC4)nc(OCC(F)(F)F)n3)cc2)C[C@H]1C1CC1 [Example 2039, 4-(4-(1-(4-chlorophenyl)cyclopropylamino)-6-(2,2,2-trifluoroethoxy)-1,3,5-triazin-2-ylamino)-N-(4-((1S,2R)-2-(methylsulfonylcarbamoyl)bi(cyclopropan)-2-ylamino)-4-oxobutyl)benzamide] | 0.5 to 100 | –
CN(C)S(=O)(=O)NC(=O)CCNC(=O)CCCNC(=O)c1ccc(Nc2nc(NC3(c4ccc(Cl)cc4)CC3)nc(OCC(F)(F)F)n2)cc1 [Example 2060] | 0.5 to 100 | –
COCCS(=O)(=O)NC(=O)C(C)(C)CNC(=O)c1ccc(Nc2nc(NC3(c4ccc(Cl)cc4)CC3)nc(OCC(F)(F)F)n2)cc1 [Example 2094] | 0.5 to 100 | –
O=C(CCCNC(=O)c1ccc(Nc2nc(NC3(c4ccc(Cl)cc4)CC3)nc(OCC(F)(F)F)n2)cc1)NC1(C(=O)NS(=O)(=O)C2CC2)CC1 [Example 2033] | 0.5 to 100 | –
CCCC1(S(=O)(=O)NC(=O)C2(CNC(=O)c3ccc(Nc4nc(NC5(c6ccc(Cl)cc6)CC5)nc(OCC(F)(F)F)n4)cc3)CC2)CC1 [Example 2077] | 0.5 to 100 | –
CCS(=O)(=O)NC(=O)C(C)(C)CNC(=O)c1ccc(Nc2nc(NC3(c4ccc(Cl)cc4)CC3)nc(OCC(F)(F)F)n2)cc1 [Example 2087] | 0.5 to 100 | –
O=C(CCCNC(=O)c1ccc(Nc2nc(NC3(c4ccc(Cl)cc4)CC3)nc(OCC(F)(F)F)n2)cc1)N[C@]1(C(=O)NS(=O)(=O)C2(F)CC2)C[C@H]1C1CC1 [Example 2044] | 0.5 to 100 | –
CN(C)CC1(S(=O)(=O)NC(=O)c2ccc(Nc3nc(OCC(F)(F)F)nc(N4CCN(S(C)(=O)=O)CC4)n3)cc2)CC1 [Example 8022] | 1000 to 5000 | –
CS(=O)(=O)NC(=O)C1(CNC(=O)c2ccc(Nc3nc(NC4(c5ccc(Cl)cc5)CC4)nc(OCC(F)(F)F)n3)cc2)CC1 [Example 2071] | 0.5 to 100 | –
CC(F)(F)CC(=O)NS(=O)(=O)CCNC(=O)c1ccc(Nc2nc(NC3(c4ccc(Cl)cc4)CC3)nc(OCC(F)(F)F)n2)cc1 [Example 4003] | 0.5 to 100 | –
CC(C)C(=O)NS(=O)(=O)c1ccc(Nc2nc(NC3(c4ccc(Cl)cc4)CC3)nc(OCC(F)(F)F)n2)cc1 [Example 8007] | 1000 to 5000 | 5400
O=C(NS(=O)(=O)c1ccc(Nc2nc(NC3(c4ccc(Cl)cc4)CC3)nc(OCC(F)(F)F)n2)cc1)C1CC1 [Example 8006] | 1000 to 5000 | 2990
CC(C)(C)CNCCS(=O)(=O)NC(=O)c1ccc(Nc2nc(NC3(c4ccc(Cl)cc4)CC3)nc(OCC(F)(F)F)n2)cc1 [Example 1033] | 0.5 to 100 | –
O=C(CCCNC(=O)c1ccc(Nc2nc(NC3(c4ccc(Cl)cc4)CC3)nc(OCC(F)(F)F)n2)cc1)NCCC(=O)N[C@]1(C(=O)NS(=O)(=O)C2CC2)C[C@H]1C1CC1 [Example 2064] | 0.5 to 100 | –
O=C(NS(=O)(=O)C1(CN2CCN(c3ccncc3)CC2)CC1)c1ccc(Nc2nc(NC3(c4ccc(Cl)cc4)CC3)nc(OCC(F)(F)F)n2)cc1 [Example 1019] | 0.5 to 100 | –
